The numbers were not newly measured in patent publication US20110177042A1, “Method for Dedifferentiating Melanocytes” (priority 2008, published 2011), which cites them from elsewhere.

This data set has as its system Notch1. As to conditions: identified in cited literature (Xiao 2009; Adler 2008; Stockhausen 2005).

Consider `O=C(CCCCCCC(=O)NO)NO` [suberoyl bis-hydroxamic acid], for which the Notch1 activation entry is given as “strong Notch1 activators”. Take `CCCC(CCC)C(=O)O` [valproic acid]: the Notch1 activation entry is recorded as “strong Notch1 activators”.
